Measurements from the NIST ThermoML archive (doi:10.1016/j.fluid.2012.02.007).

Conditions: Liquid, Vibrating tube method

CCCCCCO [hexan-1-ol]
Conditions	mass density [kg/m3]
293.15 K, 100 kPa	818.6
293.15 K, 10000 kPa	824.8
293.15 K, 20000 kPa	830.9
293.15 K, 30000 kPa	836.4
293.15 K, 40000 kPa	841.6
293.15 K, 50000 kPa	846.5
293.15 K, 60000 kPa	851.1
293.15 K, 70000 kPa	855.5
293.15 K, 80000 kPa	859.8
293.15 K, 90000 kPa	863.7
293.15 K, 100000 kPa	867.9
293.15 K, 110000 kPa	871.5
293.15 K, 120000 kPa	875.2
293.15 K, 130000 kPa	878.7
293.15 K, 140000 kPa	882.2
303.15 K, 100 kPa	811.5
303.15 K, 10000 kPa	818.2
303.15 K, 20000 kPa	824.1
303.15 K, 30000 kPa	830
303.15 K, 40000 kPa	835.1
303.15 K, 50000 kPa	840.5
303.15 K, 60000 kPa	845.3
303.15 K, 70000 kPa	849.8
303.15 K, 80000 kPa	854.2
303.15 K, 90000 kPa	858.4
303.15 K, 100000 kPa	862.4
303.15 K, 110000 kPa	866.3
303.15 K, 120000 kPa	870
303.15 K, 130000 kPa	873.6
303.15 K, 140000 kPa	877.1
313.15 K, 100 kPa	804.2
313.15 K, 10000 kPa	811.1
313.15 K, 20000 kPa	817.4
313.15 K, 30000 kPa	823.5
313.15 K, 40000 kPa	829
313.15 K, 50000 kPa	834.4
313.15 K, 60000 kPa	839.4
313.15 K, 70000 kPa	844.3
313.15 K, 80000 kPa	848.7
313.15 K, 90000 kPa	853.1
313.15 K, 100000 kPa	857.1
313.15 K, 110000 kPa	861.2
313.15 K, 120000 kPa	865.1
313.15 K, 130000 kPa	868.7
313.15 K, 140000 kPa	872.5
323.15 K, 100 kPa	797.3
323.15 K, 10000 kPa	804.5
323.15 K, 20000 kPa	811.2
323.15 K, 30000 kPa	817.4
323.15 K, 40000 kPa	823.3
323.15 K, 50000 kPa	828.7
323.15 K, 60000 kPa	833.8
323.15 K, 70000 kPa	838.5
323.15 K, 80000 kPa	843.1
323.15 K, 90000 kPa	847.6
323.15 K, 100000 kPa	851.8
323.15 K, 110000 kPa	856
323.15 K, 120000 kPa	860
323.15 K, 130000 kPa	863.7
323.15 K, 140000 kPa	867.3
333.15 K, 100 kPa	789.7
333.15 K, 10000 kPa	797.2
333.15 K, 20000 kPa	804.3
333.15 K, 30000 kPa	810.8
333.15 K, 40000 kPa	817
333.15 K, 50000 kPa	822.7
333.15 K, 60000 kPa	828
333.15 K, 70000 kPa	832.8
333.15 K, 80000 kPa	837.6
333.15 K, 90000 kPa	842.5
333.15 K, 100000 kPa	846.8
333.15 K, 110000 kPa	850.8
333.15 K, 120000 kPa	854.4
333.15 K, 130000 kPa	858.5
333.15 K, 140000 kPa	862.2
343.15 K, 100 kPa	781.9
343.15 K, 10000 kPa	790.2
343.15 K, 20000 kPa	797.6
343.15 K, 30000 kPa	804.4
343.15 K, 40000 kPa	810.6
343.15 K, 50000 kPa	816.4
343.15 K, 60000 kPa	822.1
343.15 K, 70000 kPa	827.3
343.15 K, 80000 kPa	832.1
343.15 K, 90000 kPa	836.9
343.15 K, 100000 kPa	841.4
343.15 K, 110000 kPa	845.7
343.15 K, 120000 kPa	849.7
343.15 K, 130000 kPa	853.6
343.15 K, 140000 kPa	857.5
353.15 K, 100 kPa	773.8
353.15 K, 10000 kPa	782.3
353.15 K, 20000 kPa	790.1
353.15 K, 30000 kPa	797.3
353.15 K, 40000 kPa	803.8
353.15 K, 50000 kPa	810
353.15 K, 60000 kPa	815.6
353.15 K, 70000 kPa	821
353.15 K, 80000 kPa	826.2
353.15 K, 90000 kPa	831.1
353.15 K, 100000 kPa	835.6
353.15 K, 110000 kPa	840
353.15 K, 120000 kPa	844.3
353.15 K, 130000 kPa	848.4
353.15 K, 140000 kPa	852.3
363.15 K, 100 kPa	765.5
363.15 K, 10000 kPa	774.9
363.15 K, 20000 kPa	783.1
363.15 K, 30000 kPa	790.6
363.15 K, 40000 kPa	797.5
363.15 K, 50000 kPa	803.8
363.15 K, 60000 kPa	809.7
363.15 K, 70000 kPa	815.4
363.15 K, 80000 kPa	820.6
363.15 K, 90000 kPa	825.6
363.15 K, 100000 kPa	830.3
363.15 K, 110000 kPa	834.8
363.15 K, 120000 kPa	839.2
363.15 K, 130000 kPa	843.3
363.15 K, 140000 kPa	847.2
373.15 K, 100 kPa	756.9
373.15 K, 10000 kPa	766.6
373.15 K, 20000 kPa	775.4
373.15 K, 30000 kPa	783.4
373.15 K, 40000 kPa	790.4
373.15 K, 50000 kPa	796.9
373.15 K, 60000 kPa	803.1
373.15 K, 70000 kPa	808.9
373.15 K, 80000 kPa	814.2
373.15 K, 90000 kPa	819.5
373.15 K, 100000 kPa	824.4
373.15 K, 110000 kPa	829.2
373.15 K, 120000 kPa	833.3
373.15 K, 130000 kPa	837.7
373.15 K, 140000 kPa	841.7
383.15 K, 100 kPa	748.2
383.15 K, 10000 kPa	759.1
383.15 K, 20000 kPa	767.8
383.15 K, 30000 kPa	776.5
383.15 K, 40000 kPa	783.5
383.15 K, 50000 kPa	790.4
383.15 K, 60000 kPa	796.8
383.15 K, 70000 kPa	802.6
383.15 K, 80000 kPa	808.3
383.15 K, 90000 kPa	813.7
383.15 K, 100000 kPa	818.7
383.15 K, 110000 kPa	823.4
383.15 K, 120000 kPa	828
383.15 K, 130000 kPa	832.3
383.15 K, 140000 kPa	836.5
393.15 K, 100 kPa	739.4
393.15 K, 10000 kPa	750.8
393.15 K, 20000 kPa	760.5
393.15 K, 30000 kPa	768.8
393.15 K, 40000 kPa	777
393.15 K, 50000 kPa	783.7
393.15 K, 60000 kPa	790.3
393.15 K, 70000 kPa	796.5
393.15 K, 80000 kPa	802.5
393.15 K, 90000 kPa	807.8
393.15 K, 100000 kPa	813
393.15 K, 110000 kPa	818.1
393.15 K, 120000 kPa	822.6
393.15 K, 130000 kPa	827.2
393.15 K, 140000 kPa	831.5
403.15 K, 100 kPa	730.2
403.15 K, 10000 kPa	741.8
403.15 K, 20000 kPa	751.9
403.15 K, 30000 kPa	761.1
403.15 K, 40000 kPa	769.3
403.15 K, 50000 kPa	776.9
403.15 K, 60000 kPa	783.7
403.15 K, 70000 kPa	790.1
403.15 K, 80000 kPa	796.2
403.15 K, 90000 kPa	801.8
403.15 K, 100000 kPa	807.2
403.15 K, 110000 kPa	812.3
403.15 K, 120000 kPa	817.1
403.15 K, 130000 kPa	821.8
403.15 K, 140000 kPa	826.5
